Literature values, collected in patent publication US9961901B2, “Mectin and milbemycin nanoparticle formulations” (priority 2013, dated 2018).
Where two headings read alike, the source gives them in different places.

Columns and labels:
[1] = 20° C.
[2] = not given; remark: listed apart in the source

Row | Solubility, n-heptane ([1]; n-heptane) | Aqueous Photolysis DT50 ([2]; pH 5) | Compound | Octanol-Water Coefficient Log P | Solubility, Methanol [1] | Solubility, Water [1] | Aqueous Photolysis DT50 ([2]; pH 7) | Solubility, Acetone ([1]; acetone) | Solubility, Ethyl Acetate ([1]; ethyl acetate)
1 | – | – | emamectin | Log P: 5.0 | Methanol: 2700 g/L | Water: 24 mg/L | DT50: 32 d at pH 7 | – | –
2 | – | – | CC[C@H](C)[C@H]1O[C@]2(C=C[C@@H]1C)C[C@@H]1C[C@@H](C/C=C(\C)[C@@H](O[C@H]3C[C@H](OC)[C@@H](O[C@H]4C[C@H](OC)[C@@H](O)[C@H](C)O4)[C@H](C)O3)[C@@H](C)/C=C/C=C3\CO[C@@H]4[C@H](O)C(C)=C[C@@H](C(=O)O1)[C@]34O)O2 [abamectin] | Log P: 4.4 | – | Water: 1.21 mg/L | DT50: 1.5 d at pH 7 | Acetone: 72,000 mg/L | Ethyl Acetate: 160,000 mg/L
3 | n-heptane: 5,060 mg/L | DT50: 3 d at pH 5 (aqueous | milbemycin | Log P: 6.8 | Methanol: 251,000 mg/L | Water 3.6 mg/L | – | – | –
